Several values for one entry are separate records, joined by “and”; a condition that tells them apart may be missing. Equal values may be shown once. Toxic doses and inconclusive results are not listed.
Tested on: P388 leukemia ip, CD2F1 mice, survival T/C
Assay: NCI In Vivo Anticancer Drug Screen. Data for tumor model P388 Leukemia (intraperitoneal) in CD2F1 (CDF1) mice
Details: endpoint: median survival time, higher = longer survival
Method in brief: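 Mice carrying the transplanted tumor received test compound or vehicle. Survival was recorded in each group, and the value is the treated-group measurement divided by that of the vehicle-treated control group.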

[1] = dose: 50.0 mg/kg/injection, schedule: Q01DX009 (ip), vehicle: Klucel (hydroxypropylcellulose) (HPC)
[2] = dose: 100.0 mg/kg/injection, schedule: Q01DX009 (ip), vehicle: Klucel (hydroxypropylcellulose) (HPC)
[3] = dose: 200.0 mg/kg/injection, schedule: Q01DX009 (ip), vehicle: Klucel (hydroxypropylcellulose) (HPC)
[4] = dose: 50.0 mg/kg/injection, schedule: Q01DX005 (ip), vehicle: Klucel (hydroxypropylcellulose) (HPC)
[5] = dose: 100.0 mg/kg/injection, schedule: Q01DX005 (ip), vehicle: Klucel (hydroxypropylcellulose) (HPC)
[6] = dose: 200.0 mg/kg/injection, schedule: Q01DX005 (ip), vehicle: Klucel (hydroxypropylcellulose) (HPC)
[7] = dose: 60.0 mg/kg/injection, schedule: Q01DX005 (ip), vehicle: Klucel (hydroxypropylcellulose) (HPC)
[8] = dose: 120.0 mg/kg/injection, schedule: Q01DX005 (ip), vehicle: Klucel (hydroxypropylcellulose) (HPC)
[9] = dose: 240.0 mg/kg/injection, schedule: Q01DX005 (ip), vehicle: Klucel (hydroxypropylcellulose) (HPC)
[10] = dose: 50.0 mg/kg/injection, schedule: Q01DX009 (ip), vehicle: saline with Tween-80
[11] = dose: 50.0 mg/kg/injection, schedule: Q01DX009 (ip), vehicle: saline

CCOC(=O)/N=[N+](\[O-])c1cccc(Br)c1
T/C (dose: 100.0 mg/kg/injection, schedule: Q01DX001 (ip), vehicle: Klucel (hydroxypropylcellulose) (HPC)): 101 % of control

C[n+]1cccc(Oc2ccc[n+](C)c2)c1
T/C (dose: 60.0 mg/kg/injection, schedule: Q01DX005 (ip), vehicle: saline with Tween-80): 100 % of control
T/C (dose: 120.0 mg/kg/injection, schedule: Q01DX005 (ip), vehicle: saline with Tween-80): 99 % of control
T/C (dose: 240.0 mg/kg/injection, schedule: Q01DX005 (ip), vehicle: saline with Tween-80): 109 % of control

O=C(NCc1ccncc1)Nc1ccc(Cc2ccc(NC(=O)NCc3ccncc3)cc2)cc1
T/C [1]: 105 % of control
T/C [2]: 102 % of control
T/C [3]: 103 % of control

Cc1ccc2cccc([N+](=O)[O-])c2n1
T/C (dose: 12.5 mg/kg/injection, schedule: Q04DX003 (ip), vehicle: saline with Tween-80): 100 % of control
T/C (dose: 25.0 mg/kg/injection, schedule: Q04DX003 (ip), vehicle: saline with Tween-80): 104 % of control
T/C (dose: 50.0 mg/kg/injection, schedule: Q04DX003 (ip), vehicle: saline with Tween-80): 95 % of control

COc1c(C)n(CCCCCCn2ccc(=O)c(OC)c2C)ccc1=O
T/C [4]: 92 % of control
T/C [5]: 108 % of control
T/C [6]: 93 % of control

N#CC1C(=O)NC(=S)NC1c1ccco1 (stereo not given)
T/C [1]: 100 % of control
T/C [2]: 95 % of control
T/C [3]: 92 % of control

COc1ccc2c(c1)[nH]c1c(/C=C/c3ccc([N+](=O)[O-])cc3)nccc12
T/C (dose: 30.0 mg/kg/injection, schedule: Q01DX005 (ip), vehicle: Klucel (hydroxypropylcellulose) (HPC)): 107 % of control
T/C [7]: 103 % of control
T/C [8]: 105 % of control
T/C [9]: 90 % of control

CCC[CH2][Sn]([CH2]CCC)([O]C(=O)CCC(C)=O)[O]C(=O)CCC(C)=O
T/C (dose: 3.12 mg/kg/injection, schedule: Q01DX009 (ip), vehicle: Klucel (hydroxypropylcellulose) (HPC)): 118 % of control and 119 % of control
T/C (dose: 12.5 mg/kg/injection, schedule: Q01DX009 (ip), vehicle: Klucel (hydroxypropylcellulose) (HPC)): 163 % of control

CCC(c1ccc(OCC(=O)N(CCCl)CCCl)cc1)C(CC)c1ccc(OCC(=O)N(CCCl)CCCl)cc1 (stereo not given)
T/C (dose: 100.0 mg/kg/injection, schedule: Q04DX002 (ip), vehicle: suspension in saline): 98 % of control
T/C (dose: 200.0 mg/kg/injection, schedule: Q04DX002 (ip), vehicle: suspension in saline): 97 % of control
T/C (dose: 400.0 mg/kg/injection, schedule: Q04DX002 (ip), vehicle: suspension in saline): 103 % of control

C=CC[N+](CC=C)(CC=C)CC[N+](CC=C)(CC=C)CC=C
T/C (dose: 12.5 mg/kg/injection, schedule: Q01DX009 (ip), vehicle: saline with Tween-80): 97 % of control
T/C (dose: 25.0 mg/kg/injection, schedule: Q01DX009 (ip), vehicle: saline with Tween-80): 101 % of control
T/C [10]: 105 % of control

COC(OC)C(C)(C)NC(C)(C)C
T/C [11]: 104 % of control
T/C (dose: 100.0 mg/kg/injection, schedule: Q01DX009 (ip), vehicle: saline): 100 % of control

CN(C)c1cc(=O)c2ccc3ccccc3c2o1
T/C [10]: 96 % of control
T/C (dose: 100.0 mg/kg/injection, schedule: Q01DX009 (ip), vehicle: saline with Tween-80): 96 % of control
T/C (dose: 200.0 mg/kg/injection, schedule: Q01DX009 (ip), vehicle: saline with Tween-80): 93 % of control

CC(C)(S)C(N)C(=O)O (stereo not given)
T/C [1]: 98 % of control
T/C [2]: 105 % of control
T/C [3]: 94 % of control

CNc1nc2c(C)ccc3[nH]c(NC)nc3c-2n1
T/C (dose: 8.0 mg/kg/injection, schedule: Q01DX005 (ip), vehicle: Klucel (hydroxypropylcellulose) (HPC)): 95 % of control
T/C (dose: 16.0 mg/kg/injection, schedule: Q01DX005 (ip), vehicle: Klucel (hydroxypropylcellulose) (HPC)): 100 % of control
T/C (dose: 32.0 mg/kg/injection, schedule: Q01DX005 (ip), vehicle: Klucel (hydroxypropylcellulose) (HPC)): 90 % of control
T/C (dose: 64.0 mg/kg/injection, schedule: Q01DX005 (ip), vehicle: Klucel (hydroxypropylcellulose) (HPC)): 88 % of control

CC1=C(O)c2[nH]c(Cl)c(C=O)c2C(=O)C1=O
T/C (dose: 100.0 mg/kg/injection, schedule: Q01DX001 (ip), vehicle: saline with Tween-80): 100 % of control
T/C (dose: 200.0 mg/kg/injection, schedule: Q01DX001 (ip), vehicle: saline with Tween-80): 98 % of control
T/C (dose: 400.0 mg/kg/injection, schedule: Q01DX001 (ip), vehicle: saline with Tween-80): 98 % of control

C=C1ON(C)C(c2ccccc2)C1S(=O)(=O)c1ccccc1 (stereo not given)
T/C [7]: 110 % of control
T/C [8]: 105 % of control
T/C [9]: 98 % of control

C=CC(C(=C)C(=O)OC)c1ccccc1 (stereo not given)
T/C (dose: 60.0 mg/kg/injection, schedule: Q01DX005 (ip), vehicle: saline): 100 % of control
T/C (dose: 120.0 mg/kg/injection, schedule: Q01DX005 (ip), vehicle: saline): 109 % of control
T/C (dose: 240.0 mg/kg/injection, schedule: Q01DX005 (ip), vehicle: saline): 103 % of control

CSC(=S)N1CC(=O)N(C(=S)SC)CC1=O
T/C [4]: 87 % of control
T/C [5]: 92 % of control
T/C [6]: 86 % of control

[Br][Ga]([Br])[Br]
T/C (dose: 25.0 mg/kg/injection, schedule: Q01DX009 (ip), vehicle: saline): 115 % of control
T/C [11]: 100 % of control
T/C (dose: 100.0 mg/kg/injection, schedule: Q04DX003 (ip), vehicle: saline sonified): 100 % of control

From PubChem BioAssay AID330 (DTP/NCI, 2004)
